{
  "source": "patent US20030139349A1",
  "about": "“Benzophenone alpha-d-glycopyranosides, preparation and therapeutic use” (priority 2002, published 2003)",
  "system": "female mice of the C57BL/6J strain",
  "assay": "Lowering of serum cholesterol level in mice subjected to a fatty diet (single dose)",
  "type": "in vivo",
  "conditions": "total serum cholesterol; female C57BL/6J mice on fatty diet (1.25% cholesterol, 0.5% cholic acid); single dose 100 mg/kg by tubage, suspension in 3% aqueous gum",
  "protocol": "The antiatheromatous activity of the compounds according to the invention was evaluated as a function of their ability to lower the serum cholesterol level in mice subjected to a fatty diet. […] This correlation affords a test which is more rapid than direct experiments on the atheromatous plaque, which require a lengthy treatment of the animals and an expensive histological study of the walls of the aortic arch.\nThe test used consists in administering a single dose of the compound to female mice of the C57BL/6J strain. The protocol is as follows: On the first day (D0), the mice are fasted from 9 am to 5 pm, a blood sample being taken at 2 pm. At 5 pm, a given amount of food (a fatty diet comprising 1.25% of cholesterol and 0.5% of cholic acid) is distributed. On the second day (D1), the food leftovers are weighed at 9 am and the mice are fasted from 9 am to 2 pm. A blood sample is taken at 2 pm. For the treated groups of mice, the compound is administered at 9 am on the second day (D1) by tubage in the form of a suspension in a 3% aqueous solution of gum. The control groups receive only the aqueous gum.\nThe compounds were tested at a dose of 100 mg/kg. The total serum cholesterol is assayed and the results are expressed as the percentage inhibition of the increase in cholesterolemia compared with the control group.",
  "data": [
    {"smiles": "CC(=O)OC[C@H]1O[C@H](Oc2ccc(C(=O)c3ccc(C#N)cc3)cc2)[C@H](OC(C)=O)[C@@H](OC(C)=O)[C@@H]1OC(C)=O", "note": "[Example 1, [4-(4-Cyanobenzoyl)phenyl]2,3,4,6-tetra-O-acetyl-α-D-glucopyranoside]", "values": [
      {"measurement": "Activity (%): percentage inhibition of the increase in cholesterolemia compared with the control group", "value": "−27", "unit": "%"}
    ]},
    {"smiles": "N#Cc1ccc(C(=O)c2ccc(O[C@H]3O[C@H](CO)[C@@H](O)[C@H](O)[C@H]3O)cc2)cc1", "note": "[Example 2, [4-(4-Cyanobenzoyl)phenyl]α-D-glucopyranoside]", "values": [
      {"measurement": "Activity (%): percentage inhibition of the increase in cholesterolemia compared with the control group", "value": "−23", "unit": "%"}
    ]},
    {"smiles": "CC(=O)OC[C@H]1O[C@H](Oc2ccc(C(=O)c3ccc(C#N)cc3)cc2)[C@@H](OC(C)=O)[C@@H](OC(C)=O)[C@@H]1OC(C)=O", "note": "[Example 3, [4-(4-Cyanobenzoyl)phenyl]2,3,4,6-tetra-O-acetyl-α-D-mannopyranoside]", "values": [
      {"measurement": "Activity (%): percentage inhibition of the increase in cholesterolemia compared with the control group", "value": "−10", "unit": "%"}
    ]},
    {"smiles": "N#Cc1ccc(C(=O)c2ccc(O[C@H]3O[C@H](CO)[C@@H](O)[C@H](O)[C@@H]3O)cc2)cc1", "note": "[Example 4, [4-(4-Cyanobenzoyl)phenyl]α-D-mannopyranoside]", "values": [
      {"measurement": "Activity (%): percentage inhibition of the increase in cholesterolemia compared with the control group", "value": "−38", "unit": "%"}
    ]},
    {"smiles": "CC(=O)OC[C@H]1O[C@H](Oc2ccc(C(=O)c3ccc(C#N)cc3)cc2)[C@H](OC(C)=O)[C@@H](OC(C)=O)[C@H]1OC(C)=O", "note": "[Example 5, [4-(4-Cyanobenzoyl)phenyl]2,3,4,6-tetra-O-acetyl-α-D-galactopyranoside]", "values": [
      {"measurement": "Activity (%): percentage inhibition of the increase in cholesterolemia compared with the control group", "value": "−32", "unit": "%"}
    ]},
    {"smiles": "N#Cc1ccc(C(=O)c2ccc(O[C@H]3O[C@H](CO)[C@H](O)[C@H](O)[C@H]3O)cc2)cc1", "note": "[Example 6, [4-(4-Cyanobenzoyl)phenyl]α-D-galactopyranoside]", "values": [
      {"measurement": "Activity (%): percentage inhibition of the increase in cholesterolemia compared with the control group", "value": "−35", "unit": "%"}
    ]},
    {"smiles": "CC(=O)O[C@@H]1[C@@H](Oc2ccc(C(=O)c3ccc(C#N)cc3)cc2)OC[C@@H](OC(C)=O)[C@H]1OC(C)=O", "note": "[Example 7, [4-(4-Cyanobenzoyl)phenyl]2,3,4-tri-O-acetyl-α-D-arabinopyranoside]", "values": [
      {"measurement": "Activity (%): percentage inhibition of the increase in cholesterolemia compared with the control group", "value": "−25", "unit": "%"}
    ]},
    {"smiles": "N#Cc1ccc(C(=O)c2ccc(O[C@H]3OC[C@@H](O)[C@@H](O)[C@@H]3O)cc2)cc1", "note": "[Example 8, [4-(4-Cyanobenzoyl)phenyl]α-D-arabinopyranoside]", "values": [
      {"measurement": "Activity (%): percentage inhibition of the increase in cholesterolemia compared with the control group", "value": "−29", "unit": "%"}
    ]},
    {"smiles": "N#Cc1ccc(C(=O)c2ccc(O[C@H]3OC[C@@H](O)[C@H](O)[C@@H]3O)cc2)cc1", "note": "[Example 10, [4-(4-Cyanobenzoyl)phenyl]α-D-lyxopyranoside]", "values": [
      {"measurement": "Activity (%): percentage inhibition of the increase in cholesterolemia compared with the control group", "value": "−48", "unit": "%"}
    ]},
    {"smiles": "N#Cc1ccc(C(=O)c2ccc(O[C@H]3OC[C@@H](O)[C@@H](O)[C@H]3O)cc2)cc1", "note": "[Example 11, [4-(4-Cyanobenzoyl)phenyl]α-D-ribopyranoside]", "values": [
      {"measurement": "Activity (%): percentage inhibition of the increase in cholesterolemia compared with the control group", "value": "−26", "unit": "%"}
    ]}
  ]
}
